From patent US20240400553A1, “AMINE BASED MATRIPTASE 2 INHIBITORS AND USES THEREOF” (Disc Medicine, Inc., priority 2023, published 2024) come the findings set out here.

As a reminder, the Ki is a measure of affinity in units of concentration, obtained from inhibition or displacement.

Molecules are shown by their SMILES.

In this assay the target is T1, Human Recombinant Matriptase 2 (Homo sapiens, UniProt Q8IU80).
T1 construct: made in house
T1 sequence (Q8IU80 1-811): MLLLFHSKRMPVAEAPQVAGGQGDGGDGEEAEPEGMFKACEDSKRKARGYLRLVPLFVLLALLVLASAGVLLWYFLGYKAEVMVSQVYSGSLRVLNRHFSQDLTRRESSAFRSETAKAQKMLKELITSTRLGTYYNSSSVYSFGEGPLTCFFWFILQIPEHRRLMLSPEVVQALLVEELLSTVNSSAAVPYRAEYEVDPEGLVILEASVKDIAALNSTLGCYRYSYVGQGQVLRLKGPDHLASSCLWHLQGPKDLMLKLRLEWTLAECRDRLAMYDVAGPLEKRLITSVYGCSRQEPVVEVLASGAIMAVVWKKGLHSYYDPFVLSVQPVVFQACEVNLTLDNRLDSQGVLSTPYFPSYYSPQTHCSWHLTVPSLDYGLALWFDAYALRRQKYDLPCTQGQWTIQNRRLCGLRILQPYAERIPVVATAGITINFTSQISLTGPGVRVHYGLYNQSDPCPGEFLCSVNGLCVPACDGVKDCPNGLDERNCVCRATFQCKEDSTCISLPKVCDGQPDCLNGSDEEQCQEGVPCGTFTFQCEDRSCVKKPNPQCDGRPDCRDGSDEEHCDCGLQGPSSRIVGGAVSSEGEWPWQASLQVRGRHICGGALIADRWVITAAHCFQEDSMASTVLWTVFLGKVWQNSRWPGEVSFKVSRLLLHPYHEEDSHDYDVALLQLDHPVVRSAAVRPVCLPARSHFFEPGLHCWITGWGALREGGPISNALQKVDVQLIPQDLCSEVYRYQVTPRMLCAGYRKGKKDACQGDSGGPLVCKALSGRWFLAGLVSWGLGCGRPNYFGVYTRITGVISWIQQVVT
The assay is described as follows: Matriptase 2 inhibition, fluorescence based assay (Method I). To be noted: Table A; Ki of Matriptase-2; read-out: Mat-2 Ki. It is filed as biochemical. The procedure, abridged:
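Fluorogenic readout (Ex 360/Em 480 nm) taken 60 min after adding 62 μM Boc-Gln-Ala-Arg-AMC, following 30-min enzyme–compound preincubation at 25 °C. Conditions: 3.5 nM in-house enzyme, pH 7.5 Tris/NaCl/gelatin buffer, 1% DMSO; percent inhibition versus concentration fitted by variable-slope sigmoidal regression.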
With `NCc1ccc2cc(C(=O)OCC3CCOCC3)n(Cc3cc(NS(=O)(=O)Cc4ccccc4)cc4ccccc34)c2n1` [Compound 79, (oxan-4-yl)methyl 6-(aminomethyl)-1-{[3-(phenylmethanesulfon-amido)naphthalen-1-yl]-methyl}-1H-pyrrolo[2,3-b]pyridine-2-carboxylate], the Ki was no more than 100 nM. Take `CN(C)C(=O)OCCOC(=O)c1cc2ccc(CN)nc2n1Cc1cc(NS(=O)(=O)Cc2ccccc2)cc2ccccc12` [Compound 80, 2-[(dimethylcarbamoyl)-oxy]ethyl 6-(aminometh-yl)-1-{[3-phenylmethane-sulfonamido)naphthalen-1-yl]methyl}-1H-pyr-rolo[2,3-b]pyridine-2-carboxylate]: the Ki was no more than 100 nM. As for `NCc1ccc2cc(C(=O)OCc3cccnc3)n(Cc3cc(NS(=O)(=O)Cc4ccccc4)cc4ccccc34)c2n1` [Compound 81, (pyridin-3-yl)methyl 6-(aminomethyl)-1-{[3-(phenylmethanesulfon-amido)naphthalen-1-yl]-methyl}-1H-pyrrolo[2,3-b]pyridine-2-carboxylate], the Ki is no more than 100 nM. Regarding `NCc1ccc2cc(C(=O)OCCO)n(Cc3cc(NS(=O)(=O)Cc4ccccc4)cc4ccccc34)c2n1` [Compound 82, 2-hydroxyethyl 6-(amino-methyl)-1-{[3-(phenyl-methanesulfonamido)-naphthalen-1-yl]methyl}-1H-pyrrolo[2,3-b]pyr-idine-2-carboxylate], the Ki lay in the range of 100 to 500 nM. For `CN1CCC(CCS(=O)(=O)NC(=O)c2cc3ccc(CN)nc3n2Cc2cc(NS(=O)(=O)Cc3ccccc3)cc3ccccc23)CC1` [Compound 83, 6-(aminomethyl)-N-[2-(1-methylpiperidin-4-yl)-ethanesulfonyl]-1-{[3-(phenylmethanesulfon-amido)naphthalen-1-yl]-methyl}-1H-pyrrolo[2,3-b]pyridine-2-carboxamide], the Ki was in the range of 100 to 500 nM. In the case of `NCc1ccc2cc(C(=O)OCCS(N)(=O)=O)n(Cc3cc(NS(=O)(=O)Cc4ccccc4)cc4ccccc34)c2n1` [Compound 84, 2-sulfamoylethyl 6-(aminomethyl)-1-{[3-(phenylmethanesulfon-amido)naphthalen-1-yl]-methyl}-1H-pyrrolo[2,3-b]pyridine-2-carboxylate], the Ki lay in the range of 100 to 500 nM.

In the case of `NCc1ccc2cc(C(=O)OCc3ccccn3)n(Cc3cc(NS(=O)(=O)Cc4ccccc4)cc4ccccc34)c2n1` [Compound 85, (pyridin-2-yl)methyl 6-(aminomethyl)-1-{[3-(phenylmethanesulfon-amido)naphthalen-1-yl]-methyl}-1H-pyrrolo[2,3-b]pyridine-2-carboxylate], the Ki lay within 100 to 500 nM.

Take `NCc1ccc2cc(C(=O)OCCn3cnnn3)n(Cc3cc(NS(=O)(=O)Cc4ccccc4)cc4ccccc34)c2n1` [Compound 86, 2-(1H-1,2,3,4-tetrazol-1-yl)ethyl 6-(amino-methyl)-1-{[3-(phenyl-methanesulfonamido)-naphthalen-1-yl]methyl}-1H-pyrrolo[2,3-b]pyr-idine-2-carboxylate]: the Ki was in the range of 100 to 500 nM. Turning to `CC(C)n1cnc(COC(=O)c2cc3ccc(CN)nc3n2Cc2cc(NS(=O)(=O)Cc3ccccc3)cc3ccccc23)c1` [Compound 87, [1-(propan-2-yl)-1H-imidazol-4-yl]methyl 6-(aminomethyl)-1-{[3-(phenylmethanesulfon-amido)naphthalen-1-yl]-methyl}-1H-pyrrolo[2,3-b]pyridine-2-carboxylate], the Ki lay in the range of 100 to 500 nM. For `Cc1oc(=O)oc1COC(=O)c1cc2ccc(CN)nc2n1Cc1cc(NS(=O)(=O)Cc2ccccc2)cc2ccccc12` [Compound 88, (5-methyl-2-oxo-2H-1,3-dioxol-4-yl)methyl 6-(aminomethyl)-1-{[3-(phenylmethanesulfon-amido)naphthalen-1-yl]-methyl}-1H-pyrrolo[2,3-b]pyridine-2-carboxylate], the Ki fell in the range of 100 to 500 nM. With `CC(C)n1ccc(COC(=O)c2cc3ccc(CN)nc3n2Cc2cc(NS(=O)(=O)Cc3ccccc3)cc3ccccc23)n1` [Compound 90, [1-(propan-2-yl)-1H-pyrazol-3-yl]methyl 6-(aminomethyl)-1-{[3-(phenylmethanesulfon-amido)naphthalen-1-yl]-methyl}-1H-pyrrolo[2,3-b]pyridine-2-carboxylate], the Ki is 100 to 500 nM.

For `NCCOC(=O)c1cc2ccc(CN)nc2n1Cc1cc(NS(=O)(=O)Cc2ccccc2)cc2ccccc12` [Compound 91, 2-aminoethyl 6-(amino-methyl)-1-{[3-(phenyl-methanesulfonamido)naphthalen-1-yl]methyl}-1H-pyrrolo[2,3-b]pyr-idine-2-carboxylate], the Ki lay within 100 to 500 nM. On to `NCc1ccc2cc(C(=O)OCCn3ccnn3)n(Cc3cc(NS(=O)(=O)Cc4ccccc4)cc4ccccc34)c2n1` [Compound 92, 2-(1H-1,2,3-triazol-1-yl-ethyl 6-(aminomethyl)-1-{[3-(phenylmethane-sulfonamido)naphthalen-1-yl]methyl}-1H-pyrrolo-[2,3-b]pyridine-2-carbox-ylate], for which the Ki was 100 to 500 nM. For `NCc1ccc2cc(C(=O)OCCn3ccnc3)n(Cc3cc(NS(=O)(=O)Cc4ccccc4)cc4ccccc34)c2n1` [Compound 93, 2-(1H-imidazol-1-yl)-ethyl 6-(aminomethyl)-1-{[3-(phenylmethanesul-fonamido)naphthalen-1-yl]methyl}-1H-pyrrolo-[2,3-b]pyridine-2-car-boxylate], the Ki was 100 to 500 nM. Then `NCc1ccc2cc(C(=O)OCCNC(N)=O)n(Cc3cc(NS(=O)(=O)Cc4ccccc4)cc4ccccc34)c2n1` [Compound 94, 2-(carbamoylamino)-ethyl 6-(aminomethyl)-1-{[3-(phenylmethanesul-fonamido)naphthalen-1-yl]methyl}-1H-pyrrolo-[2,3-b]pyridine-2-carbox-ylate], with 100 to 500 nM. On to `COCCOC(=O)c1cc2ccc(CN)nc2n1Cc1cc(NS(=O)(=O)Cc2ccccc2)cc2ccccc12` [Compound 95, 2-methoxyethyl 6-(aminomethyl)-1-{[3-(phenylmethanesulfon-amido)naphthalen-1-yl]-methyl}-1H-pyrrolo[2,3-b]pyridine-2-carboxylate], for which the Ki was in the range of 100 to 500 nM. Turning to `CC(C)(C)n1cnc(COC(=O)c2cc3ccc(CN)nc3n2Cc2cc(NS(=O)(=O)Cc3ccccc3)cc3ccccc23)c1` [Compound 96, (1-tert-butyl-1H-imid-azol-4-yl)methyl 6-(aminomethyl)-1-{[3-(phenylmethanesulfon-amido)naphthalen-1-yl]-methyl}-1H-pyrrolo[2,3-b]pyridine-2-carboxylate], the Ki is 100 to 500 nM. As for `NCc1ccc2cc(C(=O)OCCn3cncn3)n(Cc3cc(NS(=O)(=O)Cc4ccccc4)cc4ccccc34)c2n1` [Compound 97], the Ki was in the range of 100 to 500 nM. Then `NCc1ccc2cc(C(=O)OCc3ccncc3)n(Cc3cc(NS(=O)(=O)Cc4ccccc4)cc4ccccc34)c2n1` [Compound 100, (pyridin-4-yl)methyl 6-(aminomethyl)-1-{[3-(phenylmethanesulfon-amido)naphthalen-1-yl]-methyl}-1H-pyrrolo[2,3-b]pyridine-2-carboxylate], with 100 to 500 nM. Consider `NCc1ccc2cc(C(=O)OCc3cn(CC(F)(F)F)cn3)n(Cc3cc(NS(=O)(=O)Cc4ccccc4)cc4ccccc34)c2n1` [Compound 101, [1-(2,2,2-trifluoroethyl)-1H-imidazol-4-yl]methyl 6-(aminomethyl)-1-{[3-(phenylmethanesulfon-amido)naphthalen-1-yl]-methyl}-1H-pyrrolo[2,3-b]pyridine-2-carboxylate], for which the inhibition constant (Ki) was 100 to 500 nM. Regarding `NCc1ccc2cc(C(=O)OCCC3CCOCC3)n(Cc3cc(NS(=O)(=O)Cc4ccccc4)cc4ccccc34)c2n1` [Compound 102, 2-(oxan-4-yl)ethyl 6-(aminomethyl)-1-{[3-(phenylmethanesulfon-amido)naphthalen-1-yl]-methyl}-1H-pyrrolo[2,3-b]pyridine-2-carboxylate], the Ki was 100 to 500 nM. Next, `NCc1ccc2cc(C(=O)OCc3cncn3CC(F)(F)F)n(Cc3cc(NS(=O)(=O)Cc4ccccc4)cc4ccccc34)c2n1` [Compound 103, [1-(2,2,2-trifluoroethyl)-1H-imidazol-5-yl]methyl 6-(aminomethyl)-1-{[3-(phenylmethanesulfon-amido)naphthalen-1-yl]-methyl}-1H-pyrrolo[2,3-b]pyridine-2-carboxylate]: 100 to 500 nM; `CC(C)(C)n1cncc1CCOC(=O)c1cc2ccc(CN)nc2n1Cc1cc(NS(=O)(=O)Cc2ccccc2)cc2ccccc12` [Compound 104, 2-(1-tert-butyl-1H-imid-azol-5-yl)ethyl 6-(amino-methyl)-1-{[3-(phenyl-methanesulfonamido)-naphthalen-1-yl]methyl}-1H-pyrrolo[2,3-b]pyr-idine-2-carboxylate]: 100 to 500 nM.
